Measured values reported in ChEMBL document CHEMBL1201862, “PubChem BioAssay data set” (2004).
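Briefly, cells in 96-well plates were exposed to five compound concentrations for 48 h, and endpoints were estimated by linear interpolation. At the GI50, growth is halved.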 Active and inactive are the calls of the source. Rule as the data show it: active = GI50 up to about 1.1 µM and inactive = higher.

Columns and labels:
Assay in all cases: growth of human tumour cells (NCI), 48 h
[1] = tested on: M14
[2] = tested on: SK-MEL-2
[3] = tested on: DLD-1
[4] = tested on: NCI-H522
[5] = tested on: HCC 2998
[6] = tested on: M19-MEL
[7] = tested on: CAKI-1
[8] = tested on: SF-295
[9] = tested on: NCI-H226
[10] = tested on: RXF 393
[11] = tested on: KM12
[12] = tested on: OVCAR-8
[13] = tested on: 786-0
[14] = tested on: DMS-273
[15] = tested on: LXFL 529
[16] = tested on: HOP-62
[17] = tested on: SNB-19
[18] = tested on: UACC-257
[19] = tested on: LOX IMVI
[20] = tested on: U-251
[21] = tested on: SNB-75
[22] = tested on: HT-29
[23] = tested on: OVCAR-3
[24] = tested on: HCT-116
[25] = tested on: MOLT-4
[26] = tested on: ACHN
[27] = tested on: Malme-3M
[28] = tested on: UACC-62
[29] = tested on: NCI-H23
[30] = tested on: EKVX
[31] = tested on: SNB-78
[32] = tested on: SK-OV-3
[33] = tested on: CCRF-CEM
[34] = tested on: DMS-114
[35] = tested on: SK-MEL-5
[36] = tested on: A549
[37] = tested on: OVCAR-5
[38] = tested on: COLO 205
[39] = tested on: RPMI-8226
[40] = tested on: HOP-92
[41] = tested on: IGROV-1
[42] = tested on: HOP-18
[43] = tested on: RXF 631
[44] = tested on: NCI-H460
[45] = tested on: SN12C
[46] = tested on: A498
[47] = tested on: UO-31
[48] = tested on: SK-MEL-28
[49] = tested on: HCT-15
[50] = tested on: SW-620
[51] = tested on: HL-60
[52] = tested on: TK-10
[53] = tested on: SR
[54] = tested on: SF-268
[55] = tested on: OVCAR-4
[56] = tested on: KM-20L2
[57] = tested on: K562
[58] = tested on: XF498
[59] = tested on: SF-539

CCCCCCCCC(C)CCCCCCCCC(=O)OCC(COP(=O)([O-])OCC[N+](C)(C)C)OC(=O)CCCCCCCCC(C)CCCCCCCC (stereo not drawn)
GI50 [1]: > 100 µM (inactive)
GI50 [2]: > 100 µM (inactive)
GI50 [3]: > 100 µM (inactive)
GI50 [4]: > 100 µM (inactive)
GI50 [5]: > 100 µM (inactive)
GI50 [6]: > 100 µM (inactive)
GI50 [7]: > 100 µM (inactive)
GI50 [8]: > 100 µM (inactive)
GI50 [9]: > 100 µM (inactive)
GI50 [10]: > 100 µM (inactive)
GI50 [11]: > 100 µM (inactive)
GI50 [12]: > 100 µM (inactive)
GI50 [13]: > 100 µM (inactive)
GI50 [14]: > 100 µM (inactive)
GI50 [15]: > 100 µM (inactive)
GI50 [16]: > 100 µM (inactive)
GI50 [17]: > 100 µM (inactive)
GI50 [18]: > 100 µM (inactive)
GI50 [19]: > 100 µM (inactive)
GI50 [20]: > 100 µM (inactive)
GI50 [21]: > 100 µM (inactive)
GI50 [22]: > 100 µM (inactive)
GI50 [23]: > 100 µM (inactive)
GI50 [24]: > 100 µM (inactive)
GI50 [25]: > 100 µM (inactive)
GI50 [26]: > 100 µM (inactive)
GI50 [27]: > 100 µM (inactive)
GI50 [28]: > 100 µM (inactive)
GI50 [29]: > 100 µM (inactive)
GI50 [30]: > 100 µM (inactive)
GI50 [31]: > 100 µM (inactive)
GI50 [32]: > 100 µM (inactive)
GI50 [33]: > 100 µM (inactive)
GI50 [34]: > 100 µM (inactive)
GI50 [35]: > 100 µM (inactive)
GI50 [36]: > 100 µM (inactive)
GI50 [37]: > 100 µM (inactive)
GI50 [38]: > 100 µM (inactive)
GI50 [39]: > 100 µM (inactive)
GI50 [40]: > 100 µM (inactive)
GI50 [41]: > 100 µM (inactive)
GI50 [42]: > 100 µM (inactive)
GI50 [43]: > 100 µM (inactive)
GI50 [44]: > 100 µM (inactive)
GI50 [45]: > 100 µM (inactive)
GI50 [46]: > 100 µM (inactive)
GI50 [47]: > 100 µM (inactive)
GI50 [48]: > 100 µM (inactive)
GI50 [49]: > 100 µM
GI50 [50]: > 100 µM (inactive)
GI50 [51]: > 100 µM (inactive)
GI50 [52]: > 100 µM (inactive)
GI50 [53]: > 100 µM (inactive)
GI50 [54]: > 100 µM (inactive)
GI50 [55]: > 100 µM (inactive)
GI50 [56]: > 100 µM (inactive)
GI50 [57]: > 100 µM (inactive)

COc1ccc(C2C(C#N)=C(O)NC(O)=C2C#N)cc1OC
GI50 [1]: > 100 µM (inactive)
GI50 [2]: > 100 µM (inactive)
GI50 [4]: > 100 µM (inactive)
GI50 [5]: > 100 µM (inactive)
GI50 [6]: > 100 µM (inactive)
GI50 [58]: > 100 µM (inactive)
GI50 [7]: > 100 µM (inactive)
GI50 [8]: > 100 µM (inactive)
GI50 [11]: > 100 µM (inactive)
GI50 [12]: > 100 µM (inactive)
GI50 [14]: > 100 µM (inactive)
GI50 [15]: > 100 µM (inactive)
GI50 [16]: > 100 µM (inactive)
GI50 [17]: > 100 µM (inactive)
GI50 [20]: > 100 µM (inactive)
GI50 [21]: > 100 µM (inactive)
GI50 [22]: > 100 µM (inactive)
GI50 [23]: > 100 µM (inactive)
GI50 [24]: > 100 µM (inactive)
GI50 [25]: > 100 µM (inactive)
GI50 [27]: > 100 µM (inactive)
GI50 [30]: > 100 µM (inactive)
GI50 [31]: > 100 µM (inactive)
GI50 [32]: > 100 µM (inactive)
GI50 [35]: > 100 µM (inactive)
GI50 [59]: > 100 µM (inactive)
GI50 [36]: > 100 µM (inactive)
GI50 [37]: > 100 µM (inactive)
GI50 [38]: > 100 µM (inactive)
GI50 [39]: > 100 µM (inactive)
GI50 [40]: > 100 µM (inactive)
GI50 [41]: > 100 µM (inactive)
GI50 [42]: > 100 µM (inactive)
GI50 [43]: > 100 µM (inactive)
GI50 [45]: > 100 µM (inactive)
GI50 [46]: > 100 µM (inactive)
GI50 [47]: > 100 µM (inactive)
GI50 [48]: > 100 µM (inactive)
GI50 [49]: > 100 µM
GI50 [50]: > 100 µM (inactive)
GI50 [53]: > 100 µM (inactive)
GI50 [54]: > 100 µM (inactive)
GI50 [56]: > 100 µM (inactive)

CC12CCCCC1(C)C2Sc1ccccc1 (stereo not drawn)
GI50 [1]: 88.5 µM (inactive)
GI50 [2]: 23.4 µM (inactive)
GI50 [3]: 61.2 µM (inactive)
GI50 [4]: 28.9 µM (inactive)
GI50 [5]: 31.4 µM (inactive)
GI50 [6]: 35.9 µM (inactive)
GI50 [58]: 27.3 µM (inactive)
GI50 [7]: > 56.1 µM (inactive)
GI50 [8]: 35.6 µM (inactive)
GI50 [9]: 54.3 µM (inactive)
GI50 [10]: 23.9 µM (inactive)
GI50 [11]: 49.3 µM (inactive)
GI50 [12]: 42 µM (inactive)
GI50 [13]: 44.8 µM (inactive)
GI50 [14]: 47.2 µM (inactive)
GI50 [15]: 63.8 µM (inactive)
GI50 [16]: > 100 µM (inactive)
GI50 [17]: 38.5 µM (inactive)
GI50 [18]: 39.1 µM (inactive)
GI50 [19]: 29.9 µM (inactive)
GI50 [20]: 32.3 µM (inactive)
GI50 [21]: 70.8 µM (inactive)
GI50 [22]: 37.2 µM (inactive)
GI50 [23]: 27.9 µM (inactive)
GI50 [24]: 38.1 µM (inactive)
GI50 [25]: 19.1 µM (inactive)
GI50 [26]: 46.2 µM (inactive)
GI50 [27]: 63 µM (inactive)
GI50 [28]: 56.9 µM (inactive)
GI50 [29]: 52.6 µM (inactive)
GI50 [30]: > 57.3 µM (inactive)
GI50 [31]: > 44.3 µM (inactive)
GI50 [32]: > 100 µM (inactive)
GI50 [33]: 19.7 µM (inactive)
GI50 [34]: 30.7 µM (inactive)
GI50 [35]: 31 µM (inactive)
GI50 [59]: > 100 µM (inactive)
GI50 [36]: 43.6 µM (inactive)
GI50 [37]: > 100 µM (inactive)
GI50 [38]: > 65.3 µM (inactive)
GI50 [39]: 18.4 µM (inactive)
GI50 [40]: 26.7 µM (inactive)
GI50 [41]: > 81.7 µM (inactive)
GI50 [42]: 63.1 µM (inactive)
GI50 [43]: 51.5 µM (inactive)
GI50 [44]: > 68.4 µM (inactive)
GI50 [45]: 64.3 µM (inactive)
GI50 [46]: > 50.4 µM (inactive)
GI50 [47]: 57.9 µM (inactive)
GI50 [48]: 40.5 µM (inactive)
GI50 [49]: 55.5 µM
GI50 [50]: 42.8 µM (inactive)
GI50 [51]: 17.5 µM (inactive)
GI50 [52]: > 100 µM (inactive)
GI50 [54]: 42.3 µM (inactive)
GI50 [55]: > 73.3 µM (inactive)
GI50 [56]: > 100 µM (inactive)
GI50 [57]: 13.5 µM (inactive)
